In PubChem BioAssay (NCI):
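These data come from cells grown in 96-well plates and exposed to compound for 48 hours at five concentrations. Here, GI50 denotes the concentration required for 50% inhibition of growth. The concentration for full growth arrest is given as TGI.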

Key:
Experiment in all cases: NCI anticancer screen, dose series, 48 h
SNB-75 CNS = tested on: SNB-75 CNS
HCT-15 colon = tested on: HCT-15 colon
M14 melanoma = tested on: M14 melanoma
UACC-257 melanoma = tested on: UACC-257 melanoma
A549 NSCLC = tested on: A549 NSCLC
HCC-2998 colon = tested on: HCC-2998 colon
SK-OV-3 ovarian = tested on: SK-OV-3 ovarian
BT-549 breast = tested on: BT-549 breast

| SMILES | GI50 (SNB-75 CNS) | TGI (SNB-75 CNS) | GI50 (HCT-15 colon) | TGI (HCT-15 colon) | GI50 (M14 melanoma) | TGI (M14 melanoma) | GI50 (UACC-257 melanoma) | TGI (UACC-257 melanoma) | GI50 (A549 NSCLC) | TGI (A549 NSCLC) | GI50 (HCC-2998 colon) | TGI (HCC-2998 colon) | GI50 (SK-OV-3 ovarian) | TGI (SK-OV-3 ovarian) | GI50 (BT-549 breast) | TGI (BT-549 breast) |
| --- | --- | --- | --- | --- | --- | --- | --- | --- | --- | --- | --- | --- | --- | --- | --- | --- |
| CN1CCN(c2ccc(NC3=CC(=O)c4ncncc4C3=O)cc2)CC1 | 1700 nM | 3110 nM | 343 nM | 1440 nM | 276 nM | 744 nM | 177 nM | 357 nM | 405 nM | 2300 nM | 1270 nM | 2820 nM | 1630 nM | 3160 nM | 1600 nM | 3040 nM |
| CC/C=C\C[C@H]1C/C=C2/C(=O)C(Cl)=C[C@@H]2C/C=C\CCCC(=O)O1 | 1190 nM | 5390 nM | 109 nM | 720 nM | 681 nM | 3080 nM |  |  | 748 nM | 2750 nM | 437 nM | 826 nM | 1040 nM | 3490 nM | 524 nM | 1210 nM |
| C(=N\Nc1ccc2ccccc2n1)/c1ccccn1 | 1100 nM | 51200 nM | 377 nM | > 100000 nM | 565 nM | 3450 nM |  |  | 563 nM | > 100000 nM | 307 nM | 1140 nM | 537 nM | > 40500 nM | 1100 nM | > 38900 nM |
| COC(=O)c1cc(-c2ccc(S(C)(=O)=O)cc2)[nH]c1N/N=C/c1c(Cl)cccc1Cl | 298 nM | 1930 nM | 463 nM | > 100000 nM | 624 nM | 9770 nM | 2820 nM | > 100000 nM | 656 nM | > 39400 nM | 987 nM | 19800 nM | 852 nM | 28600 nM | 915 nM | 62000 nM |
| COc1ccc(/C=C/c2ccnc3ccccc23)cc1OC |  |  |  | 30400 nM |  | 34900 nM |  | 37600 nM |  | 31200 nM |  | > 100000 nM |  | 92800 nM |  |  |
| CCN1C(=O)N(CC)C2C1N=C(SC)N2/N=C/C=C/c1ccccc1OC (centres undefined) | 363 nM | 52500 nM | 370 nM | > 35700 nM | 330 nM | > 37400 nM | > 32900 nM | > 58000 nM | 469 nM | > 47800 nM | 413 nM | > 41100 nM | 743 nM | > 59500 nM | 479 nM | 19600 nM |
| COc1cc(-c2ccc[nH]2)[nH]c1/C=C1\N=C(C)C(CC(=O)OCC(C)(C)C)=C1C | 228 nM | 903 nM | 211 nM | 1120 nM | 212 nM | 658 nM | 339 nM | 1520 nM | 244 nM | 1240 nM | 368 nM | 1750 nM | 442 nM | 2020 nM | 286 nM | 1870 nM |
| COc1ccc2c(c1)-c1c(c3cc(OC)ccc3n(CCN(C)C)c1=O)C2=O | 1360 nM | 7490 nM | 629 nM | 13100 nM | 1800 nM | 10200 nM | 1300 nM | 4780 nM | 388 nM | 2970 nM | 1180 nM | 9240 nM | 1730 nM | 8770 nM | 5840 nM | 12900 nM |
